“And” between values parts separate entries of the source, which are not always exact repeats. Equal entries are not always repeated.
Columns and labels:
Conditions in all cases: incubation time: 72 h
[1] = system: MDA-MB-453; test: drug sensitivity score (DSS), CellTox Green (DSS (AUC-based score)); higher = stronger drug effect (viability inhibition or cytotoxicity); extreme values may be limits of the assay
Method in brief: (§1)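 The area under the fitted dose-response curve was used to calculate the drug sensitivity score. Cells from breast cancer lines were incubated for 72 h in 384-well plates with compound at 5 concentrations spaced 10-fold over a 10,000-fold range specific to each compound. Plates were read for CellTox Green and then CellTiter-Glo, and normalised to 0.1 % DMSO and a positive kill control.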

[2] = system: Hs578T; test: as above
Method in brief: as §1

[3] = system: BT-549; test: normalised viability (% of control), CellTiter-Blue; higher = more viable cells (about 100 = DMSO control)
Method in brief: (§2)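 Plates were quality-checked by Z'-factor and normalised to vehicle (100) and a positive kill control (0). The underlying assay incubated breast cancer cell lines for 72 h on 384-well plates with compound, then added 2.5 µl CellTiter-Blue for 2 h at 37 °C and read at 560/590 nm. The value is normalised viability at a single listed concentration of the series.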

[4] = system: CAL-85-1; test: as above
Method in brief: as §2

[5] = system: SK-BR-3; test: as above
Method in brief: as §2

[6] = system: DU-4475; test: as above
Method in brief: as §2

[7] = system: HCC1143; test: as above
Method in brief: as §2

[8] = system: MDA-MB-468; test: as above
Method in brief: as §2

[9] = system: BT-474; test: as above
Method in brief: as §2

[10] = system: HCC1599; test: as above
Method in brief: as §2

## CC(C)(C)c1cc(NC(=O)Nc2ccc(-c3cn4c(n3)sc3cc(OCCN5CCOCC5)ccc34)cc2)no1 [Quizartinib]
[1]
  drug sensitivity score: 0
[2]
  drug sensitivity score: 3.83
[3]; 10 nM
  normalised viability: 101%
[4]; 1 nM
  normalised viability: 101%
[5]; 10 nM
  normalised viability: 91%
[6]; 1 nM
  normalised viability: 109%
[7]; 10 nM
  normalised viability: 95.2%
[8]; 10 nM
  normalised viability: 104%
[9]; 10 nM
  normalised viability: 94.6%
[10]; 10 nM
  normalised viability: 116%

## CN(c1ccccc1CNc1nc(Nc2ccc3c(c2)CC(=O)N3)ncc1C(F)(F)F)S(C)(=O)=O
[1]
  drug sensitivity score: 0
[2]
  drug sensitivity score: 10.4

## CS(=O)(=O)CCNCc1ccc(-c2ccc3ncnc(Nc4ccc(OCc5cccc(F)c5)c(Cl)c4)c3c2)o1 [Lapatinib]
[1]
  drug sensitivity score: 1.15
[2]
  drug sensitivity score: 0
[3]; 100 nM
  normalised viability: 85.1% and 107%
[4]; 10 nM
  normalised viability: 94.6% and 101%
[5]; 100 nM
  normalised viability: 34.6% and 32.9%
[6]; 10 nM
  normalised viability: 111% and 109%
[7]; 100 nM
  normalised viability: 82.1% and 95.4%
[8]; 100 nM
  normalised viability: 86.8% and 97.8%
[9]; 100 nM
  normalised viability: 51.4% and 56.8%
[10]; 100 nM
  normalised viability: 93.9% and 94.5%

## COC1=C2C[C@@H](C)C[C@H](OC)[C@H](O)[C@@H](C)/C=C(\C)[C@H](OC(N)=O)[C@@H](OC)/C=C\C=C(/C)C(=O)NC(=CC1=O)C2=O [Geldanamycin]
[1]
  drug sensitivity score: 0
[2]
  drug sensitivity score: 0
[3]; 100 nM
  normalised viability: 39.3%
[4]; 10 nM
  normalised viability: 105%
[5]; 100 nM
  normalised viability: 22.8%
[6]; 10 nM
  normalised viability: 119%
[7]; 100 nM
  normalised viability: 44.3%
[8]; 100 nM
  normalised viability: 33.8%
[9]; 100 nM
  normalised viability: 33.6%
[10]; 100 nM
  normalised viability: 83.9%

## CC(=O)O[C@H]1C(=O)[C@@]2(C)[C@H]([C@H](OC(=O)c3ccccc3)[C@]3(O)C[C@H](OC(=O)[C@H](O)[C@@H](NC(=O)c4ccccc4)c4ccccc4)C(C)=C1C3(C)C)[C@]1(OC(C)=O)CO[C@@H]1C[C@@H]2O [Paclitaxel]
[1]
  drug sensitivity score: 0
[2]
  drug sensitivity score: 20.3
[3]; 10 nM
  normalised viability: 31.9%
[4]; 1 nM
  normalised viability: 103%
[5]; 10 nM
  normalised viability: 25.9%
[6]; 1 nM
  normalised viability: 97.6%
[7]; 10 nM
  normalised viability: 54.6%
[8]; 10 nM
  normalised viability: 52.1%
[9]; 10 nM
  normalised viability: 54.3%
[10]; 10 nM
  normalised viability: 104%

## CCCC(CCC)C(=O)O [Valproic acid]
[1]
  drug sensitivity score: 0
[2]
  drug sensitivity score: 0
[3]; 100 nM
  normalised viability: 92%
[4]; 10 nM
  normalised viability: 95.7%
[5]; 100 nM
  normalised viability: 95%
[6]; 10 nM
  normalised viability: 93.7%
[7]; 100 nM
  normalised viability: 94.9%
[8]; 100 nM
  normalised viability: 115%
[9]; 100 nM
  normalised viability: 113%
[10]; 100 nM
  normalised viability: 102%

## COC(=O)C[C@](O)(CCCC(C)(C)O)C(=O)O[C@@H]1C(OC)=C[C@]23CCCN2CCc2cc4c(cc2[C@H]13)OCO4 [Omacetaxine]
[1]
  drug sensitivity score: 0
[2]
  drug sensitivity score: 17.1

## COc1ccc(C2=N[C@@H](c3ccc(Cl)cc3)[C@@H](c3ccc(Cl)cc3)N2C(=O)N2CCNC(=O)C2)c(OC(C)C)c1 [Nutlin-3]
[1]
  drug sensitivity score: 0
[2]
  drug sensitivity score: 0
[3]; 100 nM
  normalised viability: 105%
[4]; 10 nM
  normalised viability: 99.1%
[5]; 100 nM
  normalised viability: 72.8%
[6]; 10 nM
  normalised viability: 95.4%
[7]; 100 nM
  normalised viability: 84%
[8]; 100 nM
  normalised viability: 95.8%
[9]; 100 nM
  normalised viability: 109%
[10]; 100 nM
  normalised viability: 118%

## C[C@@H]1C=C2C(=O)O[C@@H]3CC[C@H](C1)[C@]23O [Galiellalactone]
[1]
  drug sensitivity score: 0
[2]
  drug sensitivity score: 0
[3]; 500 nM
  normalised viability: 105%
[4]; 50 nM
  normalised viability: 97.4%
[5]; 500 nM
  normalised viability: 96.4%
[6]; 50 nM
  normalised viability: 117%
[7]; 500 nM
  normalised viability: 106%
[8]; 500 nM
  normalised viability: 105%
[9]; 500 nM
  normalised viability: 136%
[10]; 500 nM
  normalised viability: 91.1%

## C[C@@H]1CCN(C(=O)CC#N)C[C@@H]1N(C)c1ncnc2[nH]ccc12 [Tofacitinib]
[1]
  drug sensitivity score: 0
[2]
  drug sensitivity score: 0

## Nc1nccc(-c2c(-c3ccc(F)cc3)ncn2C2CCCCC2)n1
[1]
  drug sensitivity score: 0
[2]
  drug sensitivity score: 0

## c1ccc(C2CN3CCSC3=N2)cc1 (stereo not given) [Tetramisole]
[3]; 100 nM
  normalised viability: 83%
[4]; 10 nM
  normalised viability: 103%
[5]; 100 nM
  normalised viability: 104%
[6]; 10 nM
  normalised viability: 87.6%
[7]; 100 nM
  normalised viability: 116%
[8]; 100 nM
  normalised viability: 98.8%
[9]; 100 nM
  normalised viability: 109%
[10]; 100 nM
  normalised viability: 107%

## CCOc1cc2ncc(C#N)c(Nc3ccc(OCc4ccccn4)c(Cl)c3)c2cc1NC(=O)/C=C/CN(C)C [Neratinib]
[1]
  drug sensitivity score: 0
[2]
  drug sensitivity score: 0
[3]; 10 nM
  normalised viability: 101%
[4]; 1 nM
  normalised viability: 96.5%
[5]; 10 nM
  normalised viability: 69.9%
[6]; 1 nM
  normalised viability: 97.7%
[7]; 10 nM
  normalised viability: 89.1%
[8]; 10 nM
  normalised viability: 107%
[9]; 10 nM
  normalised viability: 105%
[10]; 10 nM
  normalised viability: 99.7%

## C[C@@]1(C(=O)Nc2ccc(F)nc2)CCCN1c1nc(Nc2cc(C3CC3)n[nH]2)c2cccn2n1
[1]
  drug sensitivity score: 0
[2]
  drug sensitivity score: 0
[3]; 100 nM
  normalised viability: 109%
[4]; 10 nM
  normalised viability: 93.5%
[5]; 100 nM
  normalised viability: 92.6%
[6]; 10 nM
  normalised viability: 90.4%
[7]; 100 nM
  normalised viability: 72.8%
[8]; 100 nM
  normalised viability: 101%
[9]; 100 nM
  normalised viability: 118%
[10]; 100 nM
  normalised viability: 73.3%

## C#Cc1cccc(Nc2ncnc3cc(OC)c(OCCCCCCC(=O)NO)cc23)c1 [CUDC-101]
[1]
  drug sensitivity score: 4.37
[2]
  drug sensitivity score: 2.25
[3]; 100 nM
  normalised viability: 97.6%
[4]; 10 nM
  normalised viability: 93%
[5]; 100 nM
  normalised viability: 58.9%
[6]; 10 nM
  normalised viability: 101%
[7]; 100 nM
  normalised viability: 79.7%
[8]; 100 nM
  normalised viability: 66.2%
[9]; 100 nM
  normalised viability: 89.2%
[10]; 100 nM
  normalised viability: 83.4%

## COc1ncc(-c2ccc3nccc(-c4ccnnc4)c3c2)cc1NS(=O)(=O)c1ccc(F)cc1F
[1]
  drug sensitivity score: 0
[2]
  drug sensitivity score: 3.92
[3]; 10 nM
  normalised viability: 95.9%
[4]; 1 nM
  normalised viability: 88.8%
[5]; 10 nM
  normalised viability: 32.7%
[6]; 1 nM
  normalised viability: 88.1%
[7]; 10 nM
  normalised viability: 68.2%
[8]; 10 nM
  normalised viability: 86.2%
[9]; 10 nM
  normalised viability: 64.7%
[10]; 10 nM
  normalised viability: 57.1%

## Cn1c(=O)c(F)c(Nc2ccc(I)cc2F)c2c(=O)n(C[C@@H](O)CO)cnc21 [TAK-733]
[1]
  drug sensitivity score: 0
[3]; 10 nM
  normalised viability: 97.4%
[4]; 1 nM
  normalised viability: 107%
[5]; 10 nM
  normalised viability: 99.4%
[6]; 1 nM
  normalised viability: 98%
[7]; 10 nM
  normalised viability: 77%
[8]; 10 nM
  normalised viability: 91.5%
[9]; 10 nM
  normalised viability: 123%
[10]; 10 nM
  normalised viability: 86.2%

Reference: the supplement of paper PMC4862054
